Consider 14 compounds from patent publication US5475022A, “Phenyl or heteroaryl and tetrahydronaphthyl substituted diene compounds having retinoid like biological activity” (Allergan, Inc., priority 1993, dated 1995).

The test system of one assay is ornithine decarboxylase (ODC). The assay is described as follows: inhibition of TPA induction of ornithine decarboxylase (ODC). The assay is classed as cell-based. To be noted: TPA-induced ODC activity, read-out: % ODC Inhibition at 1.0 μM concentration. From the text: The retinoid-like activity of these compounds is confirmed through the classic measure of retinoic acid activity involving the effects of retinoic acid on ornithine decarboxylase. The original work on the correlation between retinoic acid and decrease in cell proliferation was done by Verma & Boutwell, Cancer Research, 1977, 37,2196-2201. That reference discloses that ornithine decarboxylase (ODC) activity increased precedent to polyamine biosynthesis. It has been established elsewhere that increases in polyamine synthesis can be correlated or associated with cellular proliferation. Thus, if ODC activity could be inhibited, cell hyperproliferation could be modulated. Although all causes for ODC activity increases are unknown, it is known that 12-0-tetradecanoylphorbol-13-acetate (TPA) induces ODC activity.
Take `COC(=O)c1ccoc1/C=C/C=C(\C)c1cc2c(cc1C)C(C)(C)CCC2(C)C` [Compound 1, Methyl 2-[4-methyl-4-(3,5,5,8,8-pentamethyl-5,6,7,8-tetrahydronaphthalene)-2-yl-1E,3E-butadien-1-yl]-furan-3-carboxylate]: the inhibition at 1 µM worked out at 37%.

Regarding `COC(=O)c1ccoc1/C=C/C=C(/C)c1cc2c(cc1C)C(C)(C)CCC2(C)C` [Compound 2, Methyl 2-[4-methyl-4-(3,5,5,8,8-pentamethyl-5,6,7,8-tetrahydronaphthalene)-2-yl-1E,3Z-butadien-1-yl]-furan-3-carboxylate], the inhibition at 1 µM worked out at 36%.

As for `C/C(=C\C=C\c1ccccc1C(=O)O)c1cc2c(cc1C)C(C)(C)CCC2(C)C` [Compound 7, 2-[4-Methyl-4-(3,5,5,8,8-pentamethyl-5,6,7,8-tetrahydronaphthalene)-2-yl-1E,3E-butadien-1-yl]benzoic acid], the inhibition at 1 µM was determined as 79%.

On to `C/C(=C/C=C/c1ccccc1C(=O)O)c1cc2c(cc1C)C(C)(C)CCC2(C)C` [Compound 8, 2-[4-Methyl4-(3,5,5,8,8-pentamethyl-5,6,7,8-tetrahydronaphthalene)-2-yl-1E,3Z-butadien-1-yl]benzoic acid], for which the inhibition at 1 µM was 75%.

On to `C/C(=C/C=C/c1occc1C(=O)O)c1cc2c(cc1C)C(C)(C)CCC2(C)C` [Compound 9, 2-[4-Methyl-4-(3,5,5,8,8-pentamethyl-5,6,7,8-tetrahydronaphthalene)-2-yl-1E,3Z-butadien-1-yl]-furan-3-carboxylic acid], for which the inhibition at 1 µM was determined as 56%.

Regarding `COC(=O)c1ccoc1/C=C/C=C(\C)c1ccc2c(c1)C(C)(C)CCC2(C)C` [Compound 11, Methyl 2-[4-methyl-4-(5,5,8,8,-tetramethyl5,6,7,8,-tetrahydronaphthalen)-2-yl-1E,3E-butadien-1-yl] furan 3-carboxylate], the inhibition at 1 µM amounted to 26%.

For the compound `COC(=O)c1ccoc1/C=C/C=C(/C)c1ccc2c(c1)C(C)(C)CCC2(C)C` [Compound 12, Methyl 2-[4-methyl-4-(5,5,8,8, -tetramethyl-5,6,7,8, -tetrahydronaphthalen)2-yl-1E, 3Z-butadien-1-yl] furan 3-carboxylate], the inhibition at 1 µM turned out to be 42%.

Regarding `C/C(=C\C=C\c1occc1C(=O)O)c1ccc2c(c1)C(C)(C)CCC2(C)C` [Compound 13, 2-[4-Methyl-4-(5,5,8,8,-tetramethyl-5,6,7,8,-tetrahydronaphthalen)-2-yl-1E,3E-butadien-1-yl] furan 3-carboxylic acid], the inhibition at 1 µM is 60%.

For `C/C(=C/C=C/c1occc1C(=O)O)c1ccc2c(c1)C(C)(C)CCC2(C)C` [Compound 14, 2-[4-Methyl-4-(5,5,8,8,-tetramethyl-5,6,7,8-tetrahydronaphthalen)-2-yl-1E,3Z-butadien-1-yl] furan 3-carboxylic acid], the inhibition at 1 µM stood at 72%.

As to `C/C(=C\C=C\c1ccsc1C(=O)O)c1cc2c(cc1C)C(C)(C)CCC2(C)C` [Compound 17, 3-[4-Methyl-4-(3,5,5,8,8,-pentamethyl-5,6,7,8,-tetrahydronaphthalen)-2-yl-1E,3 E-butadien-1-yl]thiophene 2-carboxylic acid], the inhibition at 1 µM stood at 79%.

Consider `CCOC(=O)c1occc1/C=C\C=C(/C)c1cc2c(cc1C)C(C)(C)CCC2(C)C` [Compound 19, Ethyl 3-[4-methyl-4-(3,5,5,8,8-pentamethyl-5,6,7,8-tetrahydronaphthalene)-2-yl-1Z, 3E-butadiene-1-yl]-2-furanoate], for which the inhibition at 1 µM was 73%.

`COC(=O)c1ccccc1/C=C/C=C(\C)c1cc2c(cc1C)C(C)(C)CCC2(C)C` [Compound 24, Methyl 2-[4-methyl-4-(3,5,5,8,8-pentametyl-5,6,7,8-tetrahydronaphthalene)-2-yl-1E,3E-butadien-1-yl]benzoate]: the inhibition at 1 µM came out at 88%.

Staying with this assay, now noted: value determined by linear regression of data collected at 30, 100, 300 nanomolar concentrations, read-out: % ODC Inhibition at 1.0 μM concentration.
In the case of `COC(=O)c1ccccc1/C=C/C=C(\C)c1ccc2c(c1)C(C)(C)CCC2(C)C` [Compound 6, Methyl 2-[4-methyl-4-(5,5,8,8-tetramethyl-5,6,7,8-tetrahydronaphthalene)-2-yl-1E,3E-butadien-1-yl]benzoate], the inhibition at 1 µM came out at 100%.

The test system of a further assay is ornithine decarboxylase (ODC).
Test: not given
The note with it: literature statement; cited from earlier work.
For `CC1=C(/C=C/C(C)=C/C=C/C(C)=C/C(=O)O)C(C)(C)CCC1` [Retinoic acid], the “inhibition of induction of ODC activity by TPA” value was “inhibits this induction of ODC activity by TPA”.
